Test system: SEM cells
Test: cell viability relative to DMSO control; higher = less cytotoxic
Details: 48 h
Method in brief: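 Three leukemia lines were tested: NOMO1 and SEM at 500 cells/well and P12-Ichikawa at 1000 cells/well. Each was adapted for at least four passages in each medium and seeded in 5 μl in 1536-well plates, and library compounds in DMSO were pin-dosed from 47 μM to 0.79 nM in 11 threefold steps. After 48 h at 37°C, CellTiter-Glo One luminescence was read. Viability is a percentage relative to DMSO wells on each plate, with cell-free wells as background.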

[1] = HPLM + 10% dialyzed FBS, 0.000781 µM
[2] = HPLM + 10% dialyzed FBS, 0.00234 µM
[3] = HPLM + 10% dialyzed FBS, 0.00702 µM
[4] = HPLM + 10% dialyzed FBS, 0.0211 µM
[5] = HPLM + 10% dialyzed FBS, 0.0632 µM
[6] = HPLM + 10% dialyzed FBS, 0.19 µM
[7] = HPLM + 10% dialyzed FBS, 0.569 µM
[8] = HPLM + 10% dialyzed FBS, 1.71 µM
[9] = HPLM + 10% dialyzed FBS, 5.12 µM
[10] = HPLM + 10% dialyzed FBS, 15.4 µM
[11] = HPLM + 10% dialyzed FBS, 46.1 µM
[12] = RPMI 5 mM glucose + 10% FBS, 0.000781 µM
[13] = RPMI 5 mM glucose + 10% FBS, 0.00234 µM
[14] = RPMI 5 mM glucose + 10% FBS, 0.00702 µM
[15] = RPMI 5 mM glucose + 10% FBS, 0.0211 µM
[16] = RPMI 5 mM glucose + 10% FBS, 0.0632 µM
[17] = RPMI 5 mM glucose + 10% FBS, 0.19 µM
[18] = RPMI 5 mM glucose + 10% FBS, 0.569 µM
[19] = RPMI 5 mM glucose + 10% FBS, 1.71 µM
[20] = RPMI 5 mM glucose + 10% FBS, 5.12 µM
[21] = RPMI 5 mM glucose + 10% FBS, 15.4 µM
[22] = RPMI 5 mM glucose + 10% FBS, 46.1 µM
[23] = RPMI 5 mM glucose + 10% dialyzed FBS, 0.000781 µM
[24] = RPMI 5 mM glucose + 10% dialyzed FBS, 0.00234 µM
[25] = RPMI 5 mM glucose + 10% dialyzed FBS, 0.00702 µM
[26] = RPMI 5 mM glucose + 10% dialyzed FBS, 0.0211 µM
[27] = RPMI 5 mM glucose + 10% dialyzed FBS, 0.0632 µM
[28] = RPMI 5 mM glucose + 10% dialyzed FBS, 0.19 µM
[29] = RPMI 5 mM glucose + 10% dialyzed FBS, 0.569 µM
[30] = RPMI 5 mM glucose + 10% dialyzed FBS, 1.71 µM
[31] = RPMI 5 mM glucose + 10% dialyzed FBS, 5.12 µM
[32] = RPMI 5 mM glucose + 10% dialyzed FBS, 15.4 µM
[33] = RPMI 5 mM glucose + 10% dialyzed FBS, 46.1 µM

| Compound | cell viability [1] [%] | cell viability [2] [%] | cell viability [3] [%] | cell viability [4] [%] | cell viability [5] [%] | cell viability [6] [%] | cell viability [7] [%] | cell viability [8] [%] | cell viability [9] [%] | cell viability [10] [%] | cell viability [11] [%] | cell viability [12] [%] | cell viability [13] [%] | cell viability [14] [%] | cell viability [15] [%] | cell viability [16] [%] | cell viability [17] [%] | cell viability [18] [%] | cell viability [19] [%] | cell viability [20] [%] | cell viability [21] [%] | cell viability [22] [%] | cell viability [23] [%] | cell viability [24] [%] | cell viability [25] [%] | cell viability [26] [%] | cell viability [27] [%] | cell viability [28] [%] | cell viability [29] [%] | cell viability [30] [%] | cell viability [31] [%] | cell viability [32] [%] | cell viability [33] [%] |
| --- | --- | --- | --- | --- | --- | --- | --- | --- | --- | --- | --- | --- | --- | --- | --- | --- | --- | --- | --- | --- | --- | --- | --- | --- | --- | --- | --- | --- | --- | --- | --- | --- | --- |
| CCN1C[C@]2(OC(=O)c3ccccc3NC(C)=O)CC[C@H](OC)[C@@]34[C@@H]2C[C@@H]([C@@H]13)[C@@]1(O)C[C@H](OC)[C@H]2C[C@@H]4[C@]1(O)[C@H]2OC | 85 | 100 | 99 | 105 | 99.6 | 104 | 98.2 | 106 | 92.5 | 85.2 | 88.6 | 79.5 | 96.6 | 101 | 102 | 106 | 99.8 | 103 | 90.9 | 87.9 | 65.6 | 71 | 88.2 | 94.6 | 97.5 | 101 | 81.9 | 88.4 | 99.4 | 93 | 80.6 | 78.4 | 86.5 |
| O=C1NC(O)CCN1[C@@H]1O[C@H](CO)[C@@H](O)[C@H]1O (stereo partly specified) |  |  |  |  |  |  |  |  |  |  |  | 114 | 125 | 123 | 111 | 114 | 125 | 117 | 111 | 115 | 134 | 122 |  |  |  |  |  |  |  |  |  |  |  |
| CC(C)NCC(O)c1ccc(NS(C)(=O)=O)cc1 (stereo unspecified) | 110 | 110 | 93 | 106 | 111 | 124 | 108 | 105 | 111 | 116 | 108 | 109 | 104 | 117 | 106 | 109 | 101 | 96.2 | 87.1 | 92.7 | 97.2 | 107 | 107 | 99.1 | 97.4 | 104 | 111 | 105 | 111 | 106 | 106 | 109 | 105 |
| CN(C)CCCNC(=O)c1ccc(-c2cc(O)c3ncccc3c2)cc1 | 107 | 110 | 112 | 103 | 99.7 | 103 | 104 | 91.6 | 92.6 | 81.9 | 40.2 | 107 | 107 | 109 | 103 | 117 | 112 | 120 | 115 | 104 | 78.2 | 27.1 | 95.5 | 103 | 95.2 | 113 | 95.2 | 100 | 103 | 105 | 93.3 | 74.1 | 33 |
| CC(C)c1ccccc1Cc1cc(C(=O)Nc2ccc([S+](=O)([O-])c3ccccc3C(C)(C)C)cc2)c(O)c(O)c1O | 104 | 127 | 116 | 106 | 113 | 101 | 109 | 115 | 68.6 | 94.2 | 94.6 |  |  |  |  |  |  |  |  |  |  |  | 129 | 118 | 120 | 105 | 120 | 112 | 138 | 123 | 32.7 | 69.8 | 92.1 |
| COC[C@H]1OC(=O)C2=COC3=C2[C@@]1(C)\C4=C(\[C@@H]5CC[C@H](O)[C@@]5(C)C[C@H]4OC(C)=O)C3=O | 95.1 | 117 | 48.9 | 114 | 113 | 113 | 117 | 111 | 102 | 98.6 | 54.7 | 60.9 | 67.4 | 15.9 | 71.7 | 77.7 | 84.9 | 67.9 | 77.3 | 55.9 | 53.2 | 33.7 | 101 | 99 | 45.8 | 98.4 | 115 | 108 | 104 | 105 | 84.7 | 68.2 | 30.8 |
| O=[N+]([O-])c1cnc(Sc2nnc(O)n2-c2ccc3c(c2)OCCO3)s1 | 90.4 | 69.9 | 80.1 | 82.6 | 73.2 | 86.9 | 102 | 84.3 | 83.2 | 2.06 | 2.49 | 87.5 | 70.9 | 87.6 | 87.8 | 89 | 88.6 | 100 | 73.1 | 71.4 | 2.18 | 2.5 | 82.7 | 67.9 | 81.6 | 84.1 | 77.4 | 88.2 | 85.1 | 86.7 | 77.9 | 2.08 | 2.84 |
| C[C@@H]1CC[C@@]2(OC1)OC1CC3C4CC=C5CC(O)CCC5(C)C4CCC3(C)C1[C@@H]2C (stereo partly specified) | 88.6 | 48 | 101 | 100 | 100 | 106 | 107 | 95.1 | 102 | 91.4 | 73.6 | 85.9 | 40.2 | 97.9 | 89.7 | 93.3 | 93.2 | 93.6 | 90.4 | 96.1 | 76.3 | 26.6 | 86.3 | 44.1 | 93.9 | 107 | 88.6 | 104 | 92.4 | 84.1 | 101 | 85.5 | 61.5 |
